# Experimental data taken from PMC6727617, “Exploiting Designed Oxidase–Peroxygenase Mutual Benefit System for Asymmetric Cascade Reactions” (Journal of the American Chemical Society, 2019).
# Key:
# [1] = molecular target: T1, OleTJE (Jeotgalicoccus sp. ATCC 8456, UniProt E9NSU2); experiment: GC of styrene / styrene oxide formation in coupled reaction with purified P450-BM3 SO5; assay type: biochemical; conditions: no external H2O2, H2O2 from SO5 uncoupling
# T1 construct: gene JEM45_03820; recombinant; purified enzyme or lyophilized cell-free lysate powder
# T1 sequence (E9NSU2 1-422): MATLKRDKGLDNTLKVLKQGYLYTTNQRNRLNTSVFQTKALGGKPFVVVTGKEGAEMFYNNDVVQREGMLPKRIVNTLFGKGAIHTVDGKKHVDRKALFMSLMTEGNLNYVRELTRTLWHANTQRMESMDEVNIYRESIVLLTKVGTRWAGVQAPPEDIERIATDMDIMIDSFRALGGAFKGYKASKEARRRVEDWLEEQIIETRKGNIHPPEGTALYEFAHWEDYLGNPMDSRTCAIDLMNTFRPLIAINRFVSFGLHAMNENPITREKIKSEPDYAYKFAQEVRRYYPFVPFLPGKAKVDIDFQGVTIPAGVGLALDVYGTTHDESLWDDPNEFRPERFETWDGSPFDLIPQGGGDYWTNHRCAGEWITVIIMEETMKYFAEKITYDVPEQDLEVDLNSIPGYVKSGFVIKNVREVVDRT
# [2] = molecular target: T2, ANEH (Aspergillus niger, UniProt Q9UR30); experiment: one-pot cascade with lyophilized lysate powders, conversion to diol; assay type: biochemical; conditions: 50 mM PBS pH 8.0, 300 mM NaCl; epoxide formed in situ by P450-BM3 SO5
# T2 construct: gene hyl1; recombinant, co-expressed with P450-BM3 SO5 under the same T7 promoter; lyophilized cell-free lysate powder
# T2 sequence (Q9UR30 1-398): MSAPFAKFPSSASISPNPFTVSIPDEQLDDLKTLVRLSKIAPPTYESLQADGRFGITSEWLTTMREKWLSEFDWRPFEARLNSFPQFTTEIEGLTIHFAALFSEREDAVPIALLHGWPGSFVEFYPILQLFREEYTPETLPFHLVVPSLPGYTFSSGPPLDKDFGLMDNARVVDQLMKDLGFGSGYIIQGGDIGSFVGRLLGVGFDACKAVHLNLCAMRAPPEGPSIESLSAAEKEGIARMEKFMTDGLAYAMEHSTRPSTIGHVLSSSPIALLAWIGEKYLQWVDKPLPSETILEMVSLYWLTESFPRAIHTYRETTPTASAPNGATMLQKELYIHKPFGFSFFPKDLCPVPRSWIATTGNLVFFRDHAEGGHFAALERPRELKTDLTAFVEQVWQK
Structure (SMILES),GC of styrene / styrene oxide formation in coupled reaction with purified P450-B [1],"one-pot cascade with lyophilized lysate powders, conversion to diol [2]"
"O=C(O)CCc1ccccc1 [1a, 3-phenyl propionic acid]","purified OleTJE was mixed with the purified SO5 variant, and tested in the model reaction",–
C=Cc1ccccc1 [styrene],OleT-Catalyzed Reaction B Supplies the Necessary Styrene from 3-Phenyl Propionic Acid,–
c1ccc([C@@H]2CO2)cc1 [(R)-styrene oxide],–,selective hydrolytic ring-opening of the respective epoxide catalyzed by the epoxide hydrolase
